Article PMC9374667 (Communications Biology, 2022)
“And” between values parts separate entries of the source, which are not always exact repeats. Identical values can stand only once. Like-named read-outs stand apart in the source and are kept apart here.

What was measured:
IKKε = molecular target: T1, IKKε (Mus musculus, UniProt Q9R0T8); experiment: 3T3-L1 adipocytes transfected with IKKε plasmid (western blotting, cAMP, glycerol, ISO); assay type: cell-based, Murine; parameters: endogenous in cells; host or cells: differentiated 3T3-L1 adipocytes; IKKε (western blotting, Figure 8h) / UCP1 (western blotting, Figure 8i) / UCP1 (western blotting, Figure 8j): scale not given here; cAMP levels (Figure 8k) / Glycerol release (Figure 8l): unit not given here
T1 sequence (Q9R0T8 1-717): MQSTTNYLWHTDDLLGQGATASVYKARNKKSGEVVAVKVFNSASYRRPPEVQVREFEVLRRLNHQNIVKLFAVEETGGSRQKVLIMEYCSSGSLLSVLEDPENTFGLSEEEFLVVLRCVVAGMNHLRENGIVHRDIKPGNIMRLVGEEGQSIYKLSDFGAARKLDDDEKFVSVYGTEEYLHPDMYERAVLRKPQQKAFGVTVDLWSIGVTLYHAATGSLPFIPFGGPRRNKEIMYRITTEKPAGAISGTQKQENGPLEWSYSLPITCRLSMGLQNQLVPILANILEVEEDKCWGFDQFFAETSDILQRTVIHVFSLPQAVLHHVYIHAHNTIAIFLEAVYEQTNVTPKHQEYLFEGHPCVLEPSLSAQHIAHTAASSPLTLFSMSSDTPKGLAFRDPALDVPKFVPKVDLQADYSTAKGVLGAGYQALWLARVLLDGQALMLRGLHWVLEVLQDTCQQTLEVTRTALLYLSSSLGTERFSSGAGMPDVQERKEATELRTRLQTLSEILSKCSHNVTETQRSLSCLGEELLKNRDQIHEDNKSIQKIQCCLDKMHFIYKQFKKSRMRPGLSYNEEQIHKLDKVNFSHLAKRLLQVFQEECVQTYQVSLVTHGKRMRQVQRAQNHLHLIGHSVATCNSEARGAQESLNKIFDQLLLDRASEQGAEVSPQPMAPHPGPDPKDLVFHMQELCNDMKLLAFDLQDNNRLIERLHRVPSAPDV
Method: Small interference RNA transfection (siRNA) was performed using 4 μM TBK1 siRNA (siTBK1) or 4 μM […]ε) or corresponding NC siRNA (siNC). The epididymal adipose tissue was dissected, the fresh adipose tissue was weighed and rapidly rinsed with PBS. The adipose tissue was cut and incubated with isoproterenol (10 μM) for 2 h, and homogenized in a cold cleavage buffer to prepare the adipose tissue homogenate. Then the homogenate was centrifuged at 12,000 × g at 4 °C for 15 min, and the supernatant was collected. […] Then the cells were lysed in a petri dish, scraped off, and centrifuged at 12,000 × g at 4 °C for 15 min before the supernatant was collected. […] And concentrations were further standardized according to protein concentration. The adipose tissue or 3T3-L1 adipocytes were homogenized by ultrasound in an ice-cold RIPA lysis buffer containing 1% PMSF and centrifuged at 12,000 × g at 4°C for 15 min to collect the supernatant. The BCA protein assay kit (Beyotime, Shanghai, China) was used to detect the total protein concentration. Proteins (20-30 μg) of the sample were separated by 10% SDS-PAGE gel and transferred onto polyvinylidene difluoride (PVDF) membranes. Then the PVDF membranes were blocked in 5% skim milk powder in TBS containing 1% Tween-20 (TBST) for 2 h at room temperature and washed with TBST for 3 times. […] After washing, the membranes were incubated with horseradish peroxidase-conjugated secondary antibodies (in 5% skim milk powder) for 1 h at room temperature. Finally, the membranes were treated with enhanced chemiluminescence agents (Tanon, Shanghai, China) and the signals were monitored using the Tanon 5200 multi chemiluminescent imaging system (Tanon, Shanghai, China).

[1] = In vivo pharmacokinetics studies after gavage; conditions: male, SD, rat, plasma, po
Method: The pharmacokinetic parameters were calculated by the statistical moment method of non-atrioventricular model.
Blood samples (0.5 mL) were collected from the retro-orbital venous plexus at appropriate time points and placed in collection tubes with anticoagulants. Plasma was obtained from the blood samples by centrifuged (4000 rpm, 10 min, 4 °C) and stored at −20 °C until analysis. 400 µL of acetonitrile was added to 200 µL of rat plasmas, and vortexed for 90 s and finally centrifuged at 12,000 rpm for about 10 min. 20 µL of the supernatant was used to determinate the concentration of berberine in plasma by using the liquid chromatography-mass spectrometry (Waters XBridge, Waters, USA).
The maximum peak concentration (Cmax) and the time of reaching Cmax (Tmax) can be obtained from the measured data. The area under the concentration-time curve (AUC0→t) was estimated by the trapezoidal summation. The area under the curve from time zero to infinity (AUC0→∞) was also determined..

[2] = test system: TNF-α, IL-6, MCP-1, F4/80 (Adgre1), CD11c (Itgax); experiment: qRT-PCR of inflammatory related genes and macrophage marker genes in eWAT; assay type: in vivo, mice; parameters: key to Tnf-α / IL-6 / Ccl2 / Adgre1 / Itgax: relative expression normalized to gapdh, 2^-ΔΔCt method
Source text: Total RNA was isolated from 3T3-L1 cells and adipose tissue homogenates using Trizol reagent (Invitrogen, Carlsbad, CA, USA). RNA concentration and purity were examined at 260/280 nm using a nanodrop spectrophotometer (NanoDrop One, Thermo Fisher Scientific, USA). The total RNA was reverse transcribed to cDNA using the EasyScript All-in-One First-Strand cDNA Synthesis SuperMix for qPCR kit (TransGen Biotech, Beijing, China). The quantitative reverse transcription polymerase chain reaction was performed using TransStart Top Green qPCR SuperMix (TransGen Biotech, Beijing, China) and an Applied Biosystems 7500 RealTime PCR System (Life Technologies, USA). Relative expression levels were normalized to gapdh expression and quantified using the 2^-ΔΔCt method. The primers were synthesized by Shanghai Sangon Biotech, and the detailed primer sequences were shown in Supplementary Table 5 in the supplementary materials.

[3] = 3T3-L1 adipocytes transfected with IKKε plasmid, 24 h of BJ treatment
[4] = Figure 5g, BBR 150mg/kg, replicates, first Veh value = 1

For `CC(C)Cc1ccc(C(C)C(=O)[O-])cc1.COc1ccc2cc3[n+](cc2c1OC)CCc1cc2c(cc1-3)OCO2.O.O.O.O` [BJ, berberine-ibuprofen], the “IKKε (western blotting, Figure 8h)” value (IKKε) was 0.3064 and 0.3337 and 0.413, the “IKKε (western blotting, Figure 8h)” value (IKKε; 3μg IKKε+10μM BJ) was 0.3573 and 0.3516 and 0.3871 and the “UCP1 (western blotting, Figure 8i)” value (IKKε; 3μg IKKε+10μM BJ) was 0.8819 and 0.7296 and 0.665. The “UCP1 (western blotting, Figure 8i)” value (IKKε; 10μM BJ) was 0.7179 and 0.7672 and 0.7892, the IKKε protein level (IKKε; [3]) was “significantly decreased” and the UCP1 protein level (IKKε; [3]) was “significantly increased”. For the same compound, the “Glycerol release (Figure 8l)” value (IKKε; BJ) was 86.9484 and 84.4172 and 92.0109, the “UCP1 (western blotting, Figure 8j)” value (IKKε; BJ) was 0.7729 and 0.7093 and 0.8167 and the “cAMP levels (Figure 8k)” value (IKKε; BJ) was 0.1832 and 0.1783 and 0.1808. The “Glycerol release (Figure 8l)” value (IKKε; BJ+IKKε) was 68.3861 and 70.0736 and 61.6362, the “UCP1 (western blotting, Figure 8j)” value (IKKε; BJ+IKKε) was 0.4841 and 0.4628 and 0.4991 and the “cAMP levels (Figure 8k)” value (IKKε; BJ+IKKε) was 0.1738 and 0.178 and 0.1687. The “Glycerol release (Figure 8l)” value (IKKε; ISO+BJ) was 156.135 and 153.604 and 151.073, the “UCP1 (western blotting, Figure 8j)” value (IKKε; ISO+BJ) was 0.9653 and 0.8916 and 1.268 and the “cAMP levels (Figure 8k)” value (IKKε; ISO+BJ) was 0.3323 and 0.3162 and 0.3269. The “Glycerol release (Figure 8l)” value (IKKε; ISO+BJ+IKKε) was 123.229 and 124.917 and 128.292, the “UCP1 (western blotting, Figure 8j)” value (IKKε; ISO+BJ+IKKε) was 0.6833 and 0.6687 and 0.7939 and the “cAMP levels (Figure 8k)” value (IKKε; ISO+BJ+IKKε) was 0.2266 and 0.2216 and 0.2337. The “Inhibition of ISO efficacy (UCP1, glycerol release, cAMP) by IKKε overexpression” value (IKKε; transfected 3T3-L1 adipocytes, 10 µM BJ) was “ameliorated”.
For `COc1ccc2cc3[n+](cc2c1OC)CCc1cc2c(cc1-3)OCO2` [BBR, Berberine chloride dihydrate], the Tmax [1] was 30 ± 4.8 min, the Adgre1 [2, 4] was 0.3 and 0.2426 and 0.368 and the Ccl2 [2, 4] was 0.8769 and 0.7967 and 0.7737. The IL-6 [2, 4] was 0.5766 and 0.5775 and 0.5396, the Itgax [2, 4] was 0.806 and 0.855 and 0.8182 and the Tnf-α [2, 4] was 0.6975 and 0.7551 and 0.7391. The “mRNA levels of TNF-α, IL-6, MCP-1, F4/80 (Adgre1) and CD11c (Itgax) in eWAT” value ([2]; db/db mice, 5 weeks of treatment, vs vehicle) was “reduced the mRNA levels”.
